Legend:
[1] = n-Octanol-water partition co-efficient, log P of the compound at 1 mg/ml by HPLC analysis; assay type: physicochemical
[2] = Terminal half life in Sprague-Dawley rat at 1 mg/kg, iv; assay type: ADME, organism-based; conditions: in vivo, read-out: beta t1/2 (converted)

COc1ccc2c(c1)NC(=O)CN2c1nc(NC2CC2)nc2ccccc12 gave a logP [1] of 2.26.

For COc1ccc2c(c1)NC(=O)CN2c1nc(COC(C)=O)nc2ccccc12, the logP [1] was 2.7.

In the case of COc1ccc2c(c1)NC(=O)CN2c1nc(N2CC(F)(F)C2)nc2ccccc12, the logP [1] is reported as 2.14.

Compound COc1ccc2c(c1)NC(=O)CN2c1nc(N2CCC(F)(F)C2)nc2ccccc12 has a logP [1] of 2.48.

For CCNc1nc(N2CC(=O)Nc3cc(OC)ccc32)c2ccccc2n1, the logP [1] was 2.56.

CNc1nc(N2CC(=O)Nc3cc(OC)ccc32)c2ccccc2n1 showed a logP [1] of 2.77.

In the case of COc1ccc2c(c1)NC(=O)CN2c1nc(NC2CCCC2)nc2ccccc12, the logP [1] is reported as 2.33.

In the case of COc1ccc2c(c1)NC(=O)CN2c1nc(C)nc2ccccc12, the half-life [2] is reported as 52 h.

Compound CCCCNc1nc(N2CC(=O)Nc3cc(OC)ccc32)c2ccccc2n1 has a logP [1] of 3.91.

Work on COc1ccc2c(c1)NC(=O)CN2c1nc(NCCCO)nc2ccccc12 yielded a logP [1] of 2.6.

COc1ccc2c(c1)NC(=O)CN2c1nc(CO)nc2ccccc12 gave a logP [1] of 2.14.

Compound COc1ccc2c(c1)NC(=O)CN2c1nc(Cl)nc2ccccc12 has a logP [1] of 2.94.
